Columns and labels:
[1] = system: primary human T lymphocytes; assay: Lentiviral transduction efficiency of primary human T lymphocytes with CAR vector JL28.2, FACS for VEGFR2+ cells; format: cell-based; conditions: for transduced cells VEGFR2+: in presence of DD, MOI 1.8; for VEGFR2+ cells: 6 μM BX795 before and concurrently, nine hours total (Pre-treated+Concurrent); for VEGFR2 expression as compared to DD Only Control: day 3 and day 8
Method: Lentivirus encoding the vector JL28.2 (VEGFR2-CD28TM-CD28IC-P2A-GFP), which encodes a chimeric antigen receptor composed of VEGFR2 and GFP protein, was added to the activated T lymphocyte culture at a multiplicity of infection (MOI) of 1.8. Fluorescence-activated cell sorting (FACS) was used to determine the proportion of T lymphocytes expressing VEGFR2 as a marker for successfully transduced cells.
Transduced lymphocytes were then analyzed by FACS to determine the proportion of successfully transduced cells.
T lymphocytes were cultured for eight days after transduction, and VEGFR2 expression was monitored at days 3 and 8 post-transduction.
Cells were analyzed by FACS for viability.
Primary human T lymphocytes were cultured as in Section 6.3.1 and analyzed by FACS for expression of VEGFR2.

[2] = system: primary human T lymphocytes; assay: Viability of primary human T lymphocytes after lentiviral transduction, by FACS; conditions: absence of 2-AP, JL28.2 MOI 3, 50 U/ml IL-2; without DD or PS 84%
Method: Primary human T lymphocytes were cultured in RPMI-1640 media supplemented with 10% (v/v) fetal bovine serum (FBS), and activated with anti-CD3/CD28 Dynabeads® at a Dynabead:T lymphocyte ratio of 3:1 for 24 hours. 2-Aminopurine (2-AP) was added to cultures and incubated for 90 minutes at 37 C. DEAE-dextran (DD) or protamine sulfate (PS) were added to the cultures in the presence of 50 U/ml IL-2 and JL28.2 lentiviral vector at an MOI of 3. Cells were analyzed by FACS for viability.

Question: Which “transduction efficiency as compared to cells not exposed to 2-AP (Control)” value ([1]; 2-AP 2.5 mM, 5 mM or 10 mM, pretreated 90 minutes, then 5 hours with lentivirus, in presence of DD or PS) does the source give for `Nc1ncc2[nH]cnc2n1` [2-AP, 2-Aminopurine] here?
Answer: increased transduction efficiency

Question: Which results are given for `O=C(NCCCNc1nc(Nc2cccc(NC(=O)N3CCCC3)c2)ncc1I)c1cccs1` [BX795]?
Answer: transduced cells VEGFR2+ ([1]; 1 μM BX795 added concurrently with lentivirus for six hours): 7.63%; VEGFR2+ cells ([1]; day 3 post-transduction): 18.4%; VEGFR2+ cells ([1]; day 8 post-transduction): 10.6%; VEGFR2 expression level relative to DD Only cultures ([1]; 6 μM BX795 both before and during lentiviral transduction): roughly twice as high; VEGFR2 expression as compared to DD Only Control ([1]; 6 μM BX795 concurrently with lentiviral transduction for six hours (Concurrent)): no improvement; VEGFR2 expression as compared to DD Only Control ([1]; 6 μM BX795 for three hours before lentiviral transduction (Pre-treated)): increase; transduced cells VEGFR2+ ([1]; 10 μM BX795 added concurrently with lentivirus for six hours): 10.5%

Question: What does the source list for protamine sulfate [PS]?
Answer: viable cells after lentiviral transduction [2]: 84.9%; cells VEGFR2+ ([1]; transformation reagent alone, no 2-AP, JL28.2 MOI 3, without DD or PS 4.49%): 0.565%

Source: US11629335B2, “Methods of improving vector transduction efficiency into T lymphocytes” (CELGENE CORPORATION, priority 2014, dated 2023)
